The record followed here is patent US20250042886A1, “BIS(HETERO)ARYL THIOETHER OXADIAZINES AS FUNGICIDAL COMPOUNDS” (Bayer Aktiengesellschaft, priority 2021, published 2025).

The nature of data set [1]: Measurement of Log P values by HPLC on reversed phase columns (EEC directive 79/831 Annex V.A8). The conditions noted are these: method [a]: LC-UV, acidic range, 0.1% formic acid in water and acetonitrile. The data set is classed as physicochemical.
Data set [2] has as its system Botrytis cinerea. The experiment in a line: Botrytis cinerea in vitro cell test. The conditions noted are these: 144 h, 50 μMol/l of active ingredient, liquid culture, 6 days incubation, read-out: efficacy (inhibition of fungal growth). The data set is classed as cell-based. As for the experimental part:
B-9. Botrytis cinerea In Vitro Cell Test • Solvent: DMSO • Culture medium: 1 g KH2PO4 (VWR), 1 g K2HPO4 (VWR), 0.5 g Urea (VWR), 3 g KNO3 (Prolabo), 10 g saccharose (VWR), 0.5 g MgSO4, 7H2O (Sigma), 0.07 g CaCl2, 2H2O (Prolabo), 0.2 mg MnSO4, H2O (Sigma), 0.6 mg CuSO4, 5H2O (Sigma), 7.9 mg ZnSO4, 7H2O (Sigma), 0.1 mg H3BO3 (Merck), 0.14 mg NaMoO4, 2H2O (Sigma), 2 mg thiamine (Sigma), 0.1 mg biotine (VWR), 4 mg FeSO4, 7H2O (Sigma), QSP 1 liter • Inoculum: spore suspension Fungicides were solubilized in DMSO and the solution used to prepare the required range of concentrations. […] A spore suspension of B. cinerea was prepared and diluted to the desired spore density. Fungicides were evaluated for their ability to inhibit spore germination and mycelium growth in liquid culture assay. The compounds were added in the desired concentration to the culture medium with spores. After 6 days incubation, fungi-toxicity of compounds was determined by spectrometric measurement of mycelium growth. Inhibition of fungal growth was determined by comparing the absorbance values in wells containing the fungicides with the absorbance in control wells without fungicides.

The mark [3] stands for this setting: Table 1, compounds of formula (I).
Where [4] appears, read: Table 3, intermediates of formula (27).

`FC(F)(F)Oc1cccc(Sc2nnc(Cl)cc2C2=NOC[C@H](Cc3ccc(Cl)cc3Cl)N2)c1` (racemic) [Compound I-019] yielded a chromatographic logP in data set [1] (setting [3]) of 4.99.
With `Cc1cc([C@H]2CON=C(c3c(Sc4cccc5ccccc45)nnc(C)c3C)N2)c(C)s1` (racemic) [Compound I-037], the chromatographic logP in data set [1] (setting [3]) was 3.67.
The same measure, in the same setting: next, `Cc1cc([C@@H]2CON=C(c3c(Sc4ccc(Cl)cc4Cl)nnc(C)c3C)N2)c(C)s1` (racemic) [Compound I-039]: 3.87; `Cc1cc([C@H]2CON=C(c3c(Sc4ccncc4)nnc(C)c3C)N2)c(C)s1` (racemic) [Compound I-041]: 1.58.
The molecule `Cc1ccc(C)c(Sc2nnc(C)c(C)c2C2=NOC[C@H](c3ccc(C)s3)N2)c1` (racemic) [Compound I-043] had a chromatographic logP in data set [1] (setting [3]) of 3.28.
For `Cc1cc([C@@H]2CON=C(c3c(Sc4ccc(F)cc4F)nnc(C)c3C)N2)c(C)s1` (racemic) [Compound I-051], in data set [1] (setting [3]), the chromatographic logP turned out to be 3.32.
In turn, `Cc1ccc(Sc2nnc3ccccc3c2C2=NOC[C@H](c3ccc(C)s3)N2)c(C)c1` (racemic) [Compound I-052] yielded a chromatographic logP in data set [1] (setting [3]) of 3.83.
In the case of `Cc1ccc([C@H]2CON=C(c3c(Sc4cc(Cl)ccc4Cl)nnc(C)c3C)N2)s1` (racemic) [Compound I-053], the chromatographic logP in data set [1] (setting [3]) was found to be 3.4.
Same read-out and setting: next, `COc1ccc(Sc2nnc(C)c(C)c2C2=NOC[C@@H](c3ccc(C)s3)N2)cc1` (racemic) [Compound I-054]: 2.76; `Cc1ccc(C)c(Sc2nnc(C)c(C)c2C2=NOC[C@H](c3cc(C)sc3C)N2)c1` (racemic) [Compound I-057]: 3.66.
`Cc1ccc([C@H]2CON=C(c3c(Sc4ccc(Cl)cc4Cl)nnc4ccccc34)N2)s1` (racemic) [Compound I-058]: the chromatographic logP in data set [1] (setting [3]) turned out to be 3.96.
For `Cc1cc([C@H]2CON=C(c3c(Sc4cc(Cl)cc(Cl)c4)nnc(C)c3C)N2)c(C)s1` (racemic) [Compound I-061], the inhibition at 50 µM in data set [2] was 70 to 79%. This molecule also displayed a chromatographic logP in data set [1] (setting [3]) of 4.04.
Take `Cc1ccc([C@@H]2CON=C(c3c(Sc4ccc(F)cc4)nnc(C)c3C)N2)s1` (racemic) [Compound I-063]: the inhibition at 50 µM in data set [2] lay within 70 to 79%. The molecule further had a chromatographic logP in data set [1] (setting [3]) of 2.82.
In data set [1] (setting [3]), `Cc1ccc([C@H]2CON=C(c3c(Sc4ccc(Cl)cc4)nnc(C)c3C)N2)s1` (racemic) [Compound I-064] showed a chromatographic logP of 3.14.
`Cc1ccc([C@@H]2CON=C(c3c(Sc4ccc(C(C)(C)C)cc4)nnc(C)c3C)N2)s1` (racemic) [Compound I-065]: the chromatographic logP in data set [1] (setting [3]) turned out to be 3.95.
Same read-out and setting: next, `Cc1ccc([C@H]2CON=C(c3c(Sc4ccc(Cl)cc4)nnc4ccccc34)N2)s1` (racemic) [Compound I-070]: 3.62; `Cc1ccc([C@H]2CON=C(c3c(Sc4ccncc4)nnc(C)c3C)N2)s1` (racemic) [Compound I-072]: 1.3.
For `Cc1ccc([C@@H]2CON=C(c3c(Sc4ccc(F)cc4F)nnc(C)c3C)N2)s1` (racemic) [Compound I-073], the inhibition at 50 µM in data set [2] lay within 80 to 89%. For the same molecule, the chromatographic logP in data set [1] (setting [3]) came to 2.95.
Regarding `Cc1ccc([C@@H]2CON=C(c3c(Sc4ccc(Cl)cc4Cl)nnc(C)c3C)N2)s1` (racemic) [Compound I-075], the chromatographic logP in data set [1] (setting [3]) amounted to 3.45.
Same read-out and setting: next, `Cc1cc([C@@H]2CON=C(c3c(Sc4ccc(C(F)(F)F)cc4)nnc(C)c3C)N2)c(C)s1` (racemic) [Compound I-076]: 3.71.
Molecule `COc1ccc(Sc2nnc3ccccc3c2C2=NOC[C@H](c3ccc(C)s3)N2)cc1` (racemic) [Compound I-077] showed a chromatographic logP in data set [1] (setting [3]) of 3.22.
`Cc1cc([C@@H]2CON=C(c3c(Sc4ccc(F)cc4)nnc(C)c3C)N2)c(C)s1` (racemic) [Compound I-081] returned a chromatographic logP in data set [1] (setting [3]) of 3.18.
As to `Cc1ccc([C@@H]2CON=C(c3c(Sc4ccc(C)c(Cl)c4)nnc(C)c3C)N2)s1` (racemic) [Compound I-082], the inhibition at 50 µM in data set [2] fell in the range of 90 to 100%. The molecule also registered a chromatographic logP in data set [1] (setting [3]) of 3.47.
Regarding `Cc1ccc(Sc2nnc(C)c(C)c2C2=NOC[C@@H](c3cc(C)sc3C)N2)c(C)c1` (racemic) [Compound I-087], the inhibition at 50 µM in data set [2] was 70 to 79%. Also, in data set [1] (setting [3]), the chromatographic logP stood at 3.68.
In turn, `Cc1ccc([C@H]2CON=C(c3c(Sc4cccc5ccccc45)nnc(C)c3C)N2)s1` (racemic) [Compound I-092] gave a chromatographic logP in data set [1] (setting [3]) of 3.3.
Regarding `Cc1ccc([C@H]2CON=C(c3c(Sc4ccc(C)c(C)c4)nnc(C)c3C)N2)s1` (racemic) [Compound I-093], the inhibition at 50 µM in data set [2] fell in the range of 90 to 100%. In data set [1] (setting [3]), the chromatographic logP was found to be 3.26.
The molecule `Cc1ccc(Sc2nnc(C)c(C)c2C2=NOC[C@@H](c3ccc(C)s3)N2)cc1` (racemic) [Compound I-094] came in with a chromatographic logP in data set [1] (setting [3]) of 3.01.
Consider `Cc1ccc([C@H]2CON=C(c3c(Sc4cc(Cl)ccc4Cl)nnc4ccccc34)N2)s1` (racemic) [Compound I-096], for which the chromatographic logP in data set [1] (setting [3]) was 3.88.
Consider `Cc1ccc([C@H]2CON=C(c3c(Sc4ccc5ccccc5c4)nnc4ccccc34)N2)s1` (racemic) [Compound I-098], for which the chromatographic logP in data set [1] (setting [3]) was found to be 3.81.
Regarding `Cc1ccc(Sc2nnc3ccccc3c2C2=NOC[C@H](c3ccc(C)s3)N2)cc1` (racemic) [Compound I-101], in data set [1] (setting [3]), the chromatographic logP is 3.49.
In turn, `Cc1ccc([C@H]2CON=C(c3c(Sc4ccccn4)nnc(C)c3C)N2)s1` (racemic) [Compound I-105] displayed a chromatographic logP in data set [1] (setting [3]) of 2.03.
Regarding `Cc1cc([C@H]2CON=C(c3c(Sc4ccc(Cl)c(Cl)c4)nnc(C)c3C)N2)c(C)s1` (racemic) [Compound I-107], the inhibition at 50 µM in data set [2] lay in the range of 80 to 89%. The molecule also came in with a chromatographic logP in data set [1] (setting [3]) of 3.92.
`Cc1ccc([C@H]2CON=C(c3c(Sc4ccc(OC(F)(F)F)cc4)nnc4ccccc34)N2)s1` (racemic) [Compound I-112]: the inhibition at 50 µM in data set [2] was in the range of 70 to 79%. Also, in data set [1] (setting [3]), the chromatographic logP worked out at 3.96.
For the molecule `Cc1ccc([C@H]2CON=C(c3c(Sc4ccc(C(C)(C)C)cc4)nnc4ccccc34)N2)s1` (racemic) [Compound I-113], in data set [1] (setting [3]), the chromatographic logP turned out to be 4.43.
As for `Cc1ccc([C@H]2CON=C(c3c(Sc4ccccc4Cl)nnc(C)c3C)N2)s1` (racemic) [Compound I-114], the inhibition at 50 µM in data set [2] was in the range of 90 to 100%. The chromatographic logP in data set [1] (setting [3]) was 2.93.
For `Cc1ccc([C@H]2CON=C(c3c(Sc4cc(Cl)cc(Cl)c4)nnc(C)c3C)N2)s1` (racemic) [Compound I-115], the inhibition at 50 µM in data set [2] was 90 to 100%. In data set [1] (setting [3]), this molecule yielded a chromatographic logP of 3.68.
The molecule `Cc1ccc([C@@H]2CON=C(c3c(Sc4ccc(OC(F)(F)F)cc4)nnc(C)c3C)N2)s1` (racemic) [Compound I-116] returned a chromatographic logP in data set [1] (setting [3]) of 3.52.
With `Cc1cc([C@@H]2CON=C(c3c(Sc4ccc(OC(F)(F)F)cc4)nnc(C)c3C)N2)c(C)s1` (racemic) [Compound I-119], the inhibition at 50 µM in data set [2] lay in the range of 70 to 79%. The molecule further showed a chromatographic logP in data set [1] (setting [3]) of 3.87.
Turning to `Cc1ccc([C@H]2CON=C(c3c(Sc4cc(Cl)cc(Cl)c4)nnc4ccccc34)N2)s1` (racemic) [Compound I-120], the chromatographic logP in data set [1] (setting [3]) came out at 4.18.
For `Cc1ccc(C)c(Sc2nnc3ccccc3c2C2=NOC[C@H](c3ccc(C)s3)N2)c1` (racemic) [Compound I-123], the chromatographic logP in data set [1] (setting [3]) came to 3.8.
In data set [1] (setting [3]), `Cc1ccc([C@@H]2CON=C(c3c(Sc4ccc(C(F)(F)F)cc4)nnc(C)c3C)N2)s1` (racemic) [Compound I-128] came in with a chromatographic logP of 3.36.
For `Cc1ccc([C@H]2CON=C(c3c(Sc4ccc(C(F)(F)F)cc4)nnc4ccccc34)N2)s1` (racemic) [Compound I-130], the inhibition at 50 µM in data set [2] fell in the range of 70 to 79%. In data set [1] (setting [3]), this molecule registered a chromatographic logP of 3.81.
`Cc1cc([C@@H]2CON=C(c3c(Sc4ccc(C(C)(C)C)cc4)nnc(C)c3C)N2)c(C)s1` (racemic) [Compound I-132] registered a chromatographic logP in data set [1] (setting [3]) of 4.32.
In data set [1] (setting [3]), `Cc1cc([C@H]2CON=C(c3c(Sc4ccc(Cl)cc4)nnc(C)c3C)N2)c(C)s1` (racemic) [Compound I-134] gave a chromatographic logP of 3.49.
Regarding `Cc1ccc([C@H]2CON=C(c3c(Sc4ccc(Cl)c(Cl)c4)nnc(C)c3C)N2)s1` (racemic) [Compound I-137], the inhibition at 50 µM in data set [2] lay in the range of 90 to 100%. Besides, the chromatographic logP in data set [1] (setting [3]) worked out at 3.55.
The molecule `Cc1ccc([C@@H]2CON=C(c3c(Sc4ccc5ccccc5c4)nnc(C)c3C)N2)s1` (racemic) [Compound I-138] yielded a chromatographic logP in data set [1] (setting [3]) of 3.33.
Regarding `C=CCON=C(N)c1c(Br)nnc(C)c1C` [Compound 27-01], in data set [1] (setting [4]), the chromatographic logP was 1.28.
`C=CCON=C(N)c1c(Br)nnc2ccccc12` [Compound 27-02] showed a chromatographic logP in data set [1] (setting [4]) of 1.81.
`NC(=NO)c1c(Br)nnc2ccccc12` [Compound 29-02]: the chromatographic logP in data set [1] (Table 4, intermediates of formula (29)) turned out to be 0.31.

Broadly, the chromatographic logP is a lipophilicity value derived from retention on a column. For orientation: inhibition means the change of the read-out against control, counted positive when it falls.
